Earlier results, collected in patent US20090325943A1, “VETERINARY PHARMACEUTICAL COMPOSITIONS FOR THE TREATMENT OF PAIN AND INFLAMMATION” (priority 2006, published 2009).

Columns and labels:
[1] = dog, regardless of the administration route

For `COc1cccc(C2(O)CCCCC2CN(C)C)c1` (stereo not shown) [tramadol], the “bond with the plasma proteins” value (6 animal species) is given as “modest”, the “peak plasma concentration (time to peak)” value (6 animal species) is given as no more than 2 h and the absorption (administered by the i.m. route) is given as “almost total”. The “half-life (elimination mainly by the renal route)” value [1] was “approx. 2.5 hours”.
